Our source for the LD50 values is the CATMoS acute toxicity set (Mansouri et al. 2021).

As a reminder, the LD50 is the dose at which mortality reaches 50%. A high value points to lower toxicity.

This data set is described as follows: rat acute oral toxicity. To be noted: in vivo.

`O=C1OC(=O)c2ccccc21` returned an LD50 of 1530 mg/kg. Consider `CC(=O)CC(=O)Nc1ccccc1C`, for which the LD50 is 1020 mg/kg. The value for `COC(=O)CC(=O)CC(=O)OC` was 4480 mg/kg.

`CC(COC(=O)c1ccccc1)OC(=O)c1ccccc1` (stereo not given) returned a median lethal dose (LD50) of 2660 mg/kg. This LD50 lies about 1.7-fold lower than the previous one. In the case of `C/C=C(/C)C(=O)O[C@H]1CCN2CC=C(COC(=O)[C@](O)([C@H](C)OC)C(C)(C)O)[C@H]12`, the median lethal dose (LD50) came to 110 mg/kg. This LD50 lies about 24-fold lower than the previous one. Turning to `C#CCO`, the LD50 turned out to be 20 mg/kg. For `CCCCCCCCCCCCCC[N+](C)(C)Cc1ccccc1` the value was 281 mg/kg; for `CC1=CC(=O)NS(=O)(=O)O1`, 5440 mg/kg. As to `CCOP(=S)(OCC)Oc1ccc(S(C)=O)cc1` (stereo not given), the LD50 was found to be 1.8 mg/kg. On to `CC(O)CN(CCCN(C)C)CCCN(C)C` (stereo not given), for which the LD50 is 1330 mg/kg. For the compound `CCCCC(C#N)(Cn1cncn1)c1ccc(Cl)cc1` (stereo not given), the LD50 is 1600 mg/kg.

On to `CNc1ccccc1`, for which the median lethal dose (LD50) stood at 716 mg/kg.

The compound `OC1CCCCC1` yielded a 50% lethal dose (LD50) of 1400 mg/kg. For `CC1(C)OC[C@@H]2O[C@@]3(C(=O)O)OC(C)(C)O[C@H]3[C@@H]2O1` the value was 18000 mg/kg; for `NNC(N)=S`, 9.16 mg/kg. The value for `CNC(=O)CSP(=O)(OC)OC` was 25 mg/kg.

`Cc1cccc(N)c1` came in with a median lethal dose (LD50) of 450 mg/kg. Against the preceding compound, the LD50 is about 18-fold higher.

The compound `Nc1ccc(O)c([N+](=O)[O-])c1` gave an LD50 of 1470 mg/kg. The value for `CCC(C)=O` was 2740 mg/kg. The value for `CC(C)(O)C#N` was 18.6 mg/kg; that for `O=C=NC1CCC(CC2CCC(N=C=O)CC2)CC1` (stereo not given) was 1060 mg/kg; that for `CC1OC(C)OC(C)OC(C)O1` (stereo not given) was 227 mg/kg. Regarding `CC1(C)C(C=C(Br)Br)C1C(=O)OC(C#N)c1cccc(Oc2ccccc2)c1` (stereo not given), the LD50 was 40.5 mg/kg. For `Clc1ccc(Cl)cc1`, the LD50 is 500 mg/kg.

`CC(C)(c1ccc(O)cc1)c1ccc(O)cc1` displayed a median lethal dose (LD50) of 3250 mg/kg. The value for `Cn1sccc1=O` was 105 mg/kg; that for `CCON=C(CC)C1=C(O)CC(c2c(C)cc(C)cc2C)CC1=O` (stereo not given) was 934 mg/kg. Compound `CCNc1nc(Cl)nc(NC(C)C)n1` gave an LD50 of 1870 mg/kg.

The compound `NCCNCCN` displayed an LD50 of 1080 mg/kg.

`CCNC(=O)CSP(=S)(OC)OC` showed a median lethal dose (LD50) of 125 mg/kg. For `CC(C)[C@H](C(=O)O[C@H](C#N)c1cccc(Oc2ccccc2)c1)c1ccc(Cl)cc1` the value was 88 mg/kg; for `CC(C)CCCCCCCCCCOP(OCCCCCCCCCCC(C)C)OCCCCCCCCCCC(C)C`, 12000 mg/kg. The value for `Nc1ccc(Sc2ccc(N)cc2)cc1` was 900 mg/kg; that for `CC(C)(c1ccc(O)cc1)c1cccc(C(C)(C)c2ccc(O)cc2)c1` was 5460 mg/kg; that for `N=C(NCCCCCCNC(=N)NC(=N)Nc1ccc(Cl)cc1)NC(=N)Nc1ccc(Cl)cc1` was 1180 mg/kg. Turning to `NC(=O)c1ccccc1O`, the LD50 came out at 980 mg/kg. For `COCCO` the value was 2260 mg/kg.

In turn, `O=C(Nc1ccccc1)Nc1ccnc(Cl)c1` returned an LD50 of 4900 mg/kg. This LD50 is about 2.2-fold higher than that of the compound before.

With `CN(CC[C@H](N)CC(O)=N[C@H]1C=C[C@H](n2ccc(=N)nc2O)O[C@@H]1C(=O)O)C(=N)N`, the median lethal dose (LD50) is 53.3 mg/kg. For `CCCCOCN(C(=O)CCl)c1c(CC)cccc1CC` the value was 1740 mg/kg; for `COc1c(Cl)ccc(Cl)c1C(=O)O`, 757 mg/kg; for `ClC(Cl)(Cl)C(Cl)(Cl)Cl`, 4460 mg/kg. The value for `CCOC(=O)CCN(SN(C)C(=O)Oc1cccc2c1OC(C)(C)C2)C(C)C` was 105 mg/kg. `CN(C)CCCCCCN(C)C`: the LD50 was 238 mg/kg. For `C=C(C)C(=O)OCCO` the value was 5050 mg/kg.

In turn, `CCC(=O)O` had an LD50 of 2600 mg/kg. For `O=[N+]([O-])c1cccc(Cl)c1Cl` the value was 381 mg/kg. On to `CCOP(=S)(OCC)Oc1ccc([N+](=O)[O-])cc1`, for which the median lethal dose (LD50) is 2.1 mg/kg. For `BrC(Br)Br` the value was 933 mg/kg; for `COc1ccccc1O`, 520 mg/kg. The value for `C=CCn1c(=O)n(CC=C)c(=O)n(CC=C)c1=O` was 707 mg/kg. Compound `CCCC(=O)O` gave an LD50 of 1630 mg/kg. The compound `O=C1NC(=O)C(c2ccccc2)(c2ccccc2)N1` returned an LD50 of 250 mg/kg. For `C[Si](C)(C)N[Si](C)(C)C` the value was 847 mg/kg; for `O=Cc1ccccn1`, 566 mg/kg; for `CCCCCCCCCCC(N)CO` (stereo not given), 300 mg/kg. For the compound `C=CC1CC2C=CC1C2` (stereo not given), the LD50 turned out to be 5240 mg/kg. The value for `CSc1ccc(C(=O)C(C)(C)N2CCOCC2)cc1` was 1460 mg/kg; that for `CC(C)N(C(=O)CCl)c1ccccc1` was 710 mg/kg.

With `CC1(C)[C@H](/C=C(\Cl)C(F)(F)F)[C@@H]1C(=O)O[C@H](C#N)c1cccc(Oc2ccccc2)c1`, the median lethal dose (LD50) was 114 mg/kg.

For the compound `COP(=S)(OC)SCC(=O)N(C)C=O`, the median lethal dose (LD50) is 218 mg/kg. The compound `CS(C)=O` came in with an LD50 of 14500 mg/kg.

In the case of `CCCCCCCC(=O)OCC(COC(=O)CCCCCCC)OC(=O)CCCCCCC`, the median lethal dose (LD50) was determined as 33300 mg/kg. In the case of `O=c1sc2ccccc2c(O)c1C1CC(c2ccc(-c3ccc(Br)cc3)cc2)Cc2ccccc21` (stereo not given), the LD50 is 0.55 mg/kg. This LD50 is about 61000-fold lower than that of the compound before. The value for `c1ccc(CNc2[nH]cnc3ncnc2-3)cc1` was 1300 mg/kg; that for `CCCCN` was 366 mg/kg; that for `O=c1oc2ccccc2c(O)c1C1CC(c2ccc(OCc3ccc(C(F)(F)F)cc3)cc2)Cc2ccccc21` (stereo not given) was 0.25 mg/kg. For `CC=Cc1ccc2c(c1)OCO2` the value was 1300 mg/kg; for `CCC(C)(C#N)/N=N/C(C)(C#N)CC` (stereo not given), 333 mg/kg; for `N#Cc1ccccc1O`, 300 mg/kg.
